From patent US9505769B2 (ASCENEURON SA, priority 2013, dated 2016) come the findings set out here.

In general, EC50 refers to the concentration that produces a half-maximal response.

Counter-ions that a name gives are not always drawn. Bounds are passed on as bounds.

The target in one assay is T1, human muscarinic acetylcholine M1 receptor (Homo sapiens, UniProt P11229).
T1 construct: expressed in transfected cells; host or cells: CHO-K1
T1 sequence (P11229 1-460): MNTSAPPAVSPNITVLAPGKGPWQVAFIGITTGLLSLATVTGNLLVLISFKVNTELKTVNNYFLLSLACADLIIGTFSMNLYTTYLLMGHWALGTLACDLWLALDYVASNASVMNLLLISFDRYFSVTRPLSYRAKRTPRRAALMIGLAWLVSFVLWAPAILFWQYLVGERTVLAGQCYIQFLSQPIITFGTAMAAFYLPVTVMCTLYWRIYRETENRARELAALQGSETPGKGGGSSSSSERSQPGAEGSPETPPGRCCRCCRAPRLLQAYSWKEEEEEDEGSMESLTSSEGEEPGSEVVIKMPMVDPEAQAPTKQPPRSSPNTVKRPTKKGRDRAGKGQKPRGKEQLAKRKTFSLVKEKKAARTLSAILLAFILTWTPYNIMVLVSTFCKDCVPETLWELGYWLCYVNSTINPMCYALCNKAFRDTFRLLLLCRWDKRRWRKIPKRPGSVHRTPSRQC
Description: M1 PAM Assay (IP-One HTRF, IP1 accumulation in M1-CHO cells). The class given is cell-based.
Conditions: not given
The procedure:
Then diluted compounds (0.6% DMSO final concentration) are added together with EC20 of acetylcholine and incubated with the cells for 30 min at 37° C., 5% CO2.
CHO-K1 cells stably transfected with human muscarinic acetylcholine M1 receptor are cultured in Ham's F12 medium containing 10% heat inactivated fetal calf serum, 2 mM L-glutamine and Penicillin-Streptomycin grown in a humidified atmosphere at 5% CO2/95% air at 37° C.
For orientation: Time-resolved FRET reads energy transfer from a long-lived donor to a nearby acceptor.
Consider `Cc1nc2c3c(nn2c(C)c1Cl)CN(C(=O)c1ccc(F)cc1OC1CC2C[C@H](O)C(C1)N2C)C3` (mixture of isomers) [Example 39, (3-chloro-2,4-dimethyl-7H-pyrrolo[3′,4′:3,4]pyrazolo[1,5-a]pyrimidin-8(9H)-yl)(4-fluoro-2-(((3-endo)-(6-exo)-6-hydroxy-8-methyl-8-azabicyclo[3.2.1]octan-3-yl)oxy)phenyl)methanone], for which the EC50 is < 0.2 µM.
In the case of `CN1C2CC(Oc3cc(F)ccc3C(=O)N3Cc4nn5cc(Cl)cnc5c4C3)CC1[C@@H](O)C2` (mixture of isomers) [Example 69, (3-chloro-7H-pyrrolo[3′,4′:3,4]pyrazolo[1,5-a]pyrimidin-8(9H)-yl)(4-fluoro-2-(((3-endo)-(6-exo)-6-hydroxy-8-methyl-8-azabicyclo[3.2.1]octan-3-yl)oxy)phenyl)methanone], the EC50 was < 0.2 µM.
As to `O=C(c1ccc(F)cc1O[C@H]1C[C@H]2CC[C@@H](C1)N2CCO)N1Cc2nn3cc(Cl)cnc3c2C1` (single isomer, unassigned) [Example 50, (3-chloro-7H-pyrrolo[3′,4′:3,4]pyrazolo[1,5-a]pyrimidin-8(9H)-yl)(4-fluoro-2-{[(3-endo)-8-(2-hydroxyethyl)-8-azabicyclo[3.2.1]oct-3-yl]oxy}phenyl)methanone], the EC50 lay in the range of 0.2 to 1 µM.
Take `Cc1nc2c3c(nn2c(C)c1Cl)CN(C(=O)c1ccc(F)cc1O[C@H]1C[C@H]2CC[C@@H](C1)N2CCO)C3` [Example 37, (3-chloro-2,4-dimethyl-7H-pyrrolo[3′,4′:3,4]pyrazolo[1,5-a]pyrimidin-8(9H)-yl)(4-fluoro-2-{[(3-endo)-8-(2-hydroxyethyl)-8-azabicyclo[3.2.1]oct-3-yl]oxy}phenyl)methanone]: the EC50 is < 0.2 µM.

Staying with this assay, now noted: CHO-K1 cells stably transfected with human M1 receptor; compounds added with EC20 of acetylcholine (25 nM), 30 min; intracellular IP1 by IP-One HTRF; read-out: M1 PAM EC50.
For the compound “(syn)-(6-Chloro-5,7-dimethyl-1H,3H-2,4,7a,8-tetraaza-cyclopenta[a]inden-2-yl)-[4-fluoro-2-(4-fluoro-cyclohexyloxy)-phenyl]-methanone or (anti)-(6-Chloro-5,7-dimethyl-1H,3H-2,4,7a,8-tetraaza-cyclopenta[a]inden-2-yl)-[4-fluoro-2-(4-fluoro-cyclohexyloxy)-phenyl]-methanone [Example 54]”, the EC50 was 1 to 3 µM.
Take `Cc1ccc(CCOc2cc(F)ccc2C(=O)N2Cc3nn4c(C)c(Cl)c(C)nc4c3C2)cn1` [Example 42, (3-chloro-2,4-dimethyl-7H-pyrrolo[3′,4′:3,4]pyrazolo[1,5-a]pyrimidin-8(9H)-yl)(4-fluoro-2-(2-(6-methylpyridin-3-yl)ethoxy)phenyl)methanone]: the EC50 fell in the range of 0.2 to 1 µM.
On to `Cc1nc2c3c(nn2c(C)c1Cl)CN(C(=O)c1ccc(F)cc1OC1CC(N(C)C)C1)C3` (stereo not shown) [Example 71, (6-Chloro-5,7-dimethyl-1H,3H-2,4,7a,8-tetraaza-cyclopenta[a]inden-2-yl)-[2-(3-dimethylamino-cyclobutoxy)-4-fluoro-phenyl]-methanone], for which the concentration giving a half-maximal response (EC50) was in the range of 0.2 to 1 µM.
In the case of `Cc1nc2c3c(nn2c(C)c1Cl)CN(C(=O)c1ccc(F)cc1OCCn1ccnc1C)C3` [Example 40, (3-chloro-2,4-dimethyl-7H-pyrrolo[3′,4′:3,4]pyrazolo[1,5-a]pyrimidin-8(9H)-yl)(4-fluoro-2-(2-(2-methyl-1H-imidazol-1-yl)ethoxy)phenyl)methanone], the EC50 is 1 to 3 µM.
Same read-out and setting: the value for `Cc1nc2c3c(nn2c(C)c1Cl)CN(C(=O)c1ccc(F)cc1O[C@H]1CCNC[C@@H]1O)C3` (single isomer, unassigned) [Example 70, (3-chloro-2,4-dimethyl-7H-pyrrolo[3′,4′:3,4]pyrazolo[1,5-a]pyrimidin-8(9H)-yl)(4-fluoro-2-(((3S,4S)-3-hydroxypiperidin-4-yl)oxy)phenyl)methanone hydrochloride or (3-chloro-2,4-dimethyl-7H-pyrrolo[3′,4′:3,4]pyrazolo[1,5-a]pyrimidin-8(9H)-yl)(4-fluoro-2-(((3R,4R)-3-hydroxypiperidin-4-yl)oxy)phenyl)methanone hydrochloride] was 0.2 to 1 µM; that for `Cc1nc2c3c(nn2c(C)c1Cl)CN(C(=O)c1ccc(F)cc1O[C@H]1CC[C@@H](O)CC1)C3` (single isomer, unassigned) [Example 49, (syn)-(6-Chloro-5,7-dimethyl-1H,3H-2,4,7a,8-tetraaza-cvclopenta[a]inden-2-yl)-[4-fluoro-2-(4-hydroxy-cyclohexyloxy)-phenyl]-methanone] was 0.2 to 1 µM.
In the case of `O=C(c1ccc(F)cc1O[C@H]1C[C@H]2CC[C@@H](C1)N2CC(F)F)N1Cc2nn3cc(Cl)cnc3c2C1` [Example 65, (3-chloro-7H-pyrrolo[3′,4′:3,4]pyrazolo[1,5-a]pyrimidin-8(9H)-yl)(2-{[(3-endo)-8-(2,2-difluoroethyl)-8-azabicyclo[3.2.1]oct-3-yl]oxy}-4-fluorophenyl)methanone], the EC50 was 0.2 to 1 µM.
`Cc1cncc(CCOc2cc(F)ccc2C(=O)N2Cc3nn4c(C)c(Cl)c(C)nc4c3C2)c1` [Example 67, (3-chloro-2,4-dimethyl-7H-pyrrolo[3′,4′:3,4]pyrazolo[1,5-a]pyrimidin-8(9H)-yl)(4-fluoro-2-(2-(5-methylpyridin-3-yl)ethoxy)phenyl)methanone]: the EC50 was in the range of 0.2 to 1 µM.
For `Cc1nc2c3c(nn2c(C)c1Cl)CN(C(=O)c1ccccc1C(C)N1CCN(C)CC1)C3` (stereo not shown) [Example 7, (3-chloro-2,4-dimethyl-7H-pyrrolo[3′,4′:3,4]pyrazolo[1,5-a]pyrimidin-8(9H)-yl)(2-(1-(4-methylpiperazin-1-yl)ethyl)phenyl)methanone], the EC50 was 1 to 3 µM.
As for `Cc1nc2c3c(nn2c(C)c1Cl)CN(C(=O)c1ccc(F)cc1OC[C@H]1C[C@@H](F)CN1)C3` [Example 60, (6-Chloro-5,7-dimethyl-1H,3H-2,4,7a,8-tetraaza-cyclopenta[a]inden-2-yl)-[4-fluoro-2-((2R,4R)-4-fluoro-pyrrolidin-2-ylmethoxy)-phenyl]-methanone], the EC50 was < 0.2 µM.
For the compound `Cc1nc2c3c(nn2c(C)c1Cl)CN(C(=O)c1ccc(F)cc1OCCN1CCC[C@H]1C)C3` (single isomer, unassigned) [Example 44], the EC50 is 1 to 3 µM.
On to `O=C(c1ccc(F)cc1OC1CCN(CCF)CC1)N1Cc2nn3cc(Cl)cnc3c2C1` [Example 34], for which the EC50 was in the range of 0.2 to 1 µM.
On to `Cc1nc2c3c(nn2c(C)c1Cl)CN(C(=O)c1ccccc1O[C@H]1COC[C@@H]1O)C3` (racemic) [Example 21, (anti)-(3-chloro-2,4-dimethyl-7H-pyrrolo[3′,4′:3,4]pyrazolo[1,5-a]pyrimidin-8(9H)-yl)(2-((4-hydroxytetrahydrofuran-3-yl)oxy)phenyl)methanone], for which the EC50 lay within 1 to 3 µM.
Regarding `Cc1nc2c3c(nn2c(C)c1Cl)CN(C(=O)c1ccc(F)cc1O[C@H]1CNC[C@@H]1O)C3` (racemic) [Example 27, (anti)-(6-Chloro-5,7-dimethyl-1H,3H-2,4,7a,8-tetraaza-cyclopenta[a]inden-2-yl)-[4-fluoro-2-(4-hydroxy-pyrrolidin-3-yloxy)-phenyl]-methanone], the EC50 lay in the range of 0.2 to 1 µM.
Consider `Cc1nc2c3c(nn2c(C)c1Cl)CN(C(=O)c1ccc(C#N)cc1OCCN(C)C)C3` [Example 14, 4-(3-chloro-2,4-dimethyl-8,9-dihydro-7H -pyrrolo[3′,4′:3,4]pyrazolo[1,5-a]pyrimidine-8-carbonyl)-3-(2-(dimethylamino)ethoxy)benzonitrile], for which the EC50 was in the range of 0.2 to 1 µM.
